This note sets out measurements from publication PMC4326489, “Efficacy and pharmacokinetic evaluation of a novel anti-malarial compound (NP046) in a mouse model” (Malaria Journal, 2015).

Values after ≈ are worked out from the molar mass of the structure shown.

Data set [1] can be described thus: Kinetic solubility (HPLC-UV). The format is physicochemical. Conditions: aqueous buffer, kinetic from dmso stock, PBS pH 2.0.
Method: The concentration of the test compound (x) in PBS samples was calculated from the peak area (y) in its UV chromatogram by extrapolation from the three-point calibration line, using the equation y = ax + b; where a = slope and b = intercept.
Summary of the assay method for the determination kinetic solubility:
PBS was prepared and its pH adjusted to 2.0 and 7.4
primary stock solutions of the test compounds and controls (reserpine and hydrocortisone) in DMSO at 10 mM were prepared
Samples were briefly vortex mixed
samples were incubated for 2 hours while mixing in an incubator with orbital shaker at 200 rpm
samples were centrifuged at 3500 rpm for 15 minutes at 22 °C
the supernatant of the standards were transferred from the clear 96-well plate into an opaque, round bottom 96-well analysis plate, while the aqueous samples were filtered using a vacuum manifold through a multi-screen filter plate (MSRLN 0450, 0.4 µM), into the same opaque, round bottom 96-well plate
samples were analysed using HPLC-UV method by injecting the STDs in duplicate, and the samples in singlet.
Data set [2] is described as follows: Metabolic stability in mouse liver microsomes. The class given is in vitro ADME. Particulars: 0-60 minutes, read-out: in vitro intrinsic clearance. The procedure: Metabolism is an enzymatic process in which a drug is chemically modified into polar metabolites that can be more readily excreted from the body. Metabolism occurs mainly in the liver, and the intestine. The metabolic stability of NP046 was determined in human and mouse liver microsomes using a multiple-time-point method at 0, 5, 10, 30, and 60 minutes [for the methodology see Additional file 5].
Summary of the assay method for the determination of microsomal stability:
The assay method was adopted from Obach, 1999, Giuliano et al., 2005, and Naritomi et al., 2001, with a slight modification.
The liver microsome (human and mouse) was thawed at 37 °C, and diluted to 0.4 mg/ml in a preheated (at 37 °C) 0.1 M phosphate buffer.
The primary stock solutions (10 mM) of the controls and test compounds were diluted as follows: first in DMSO to obtain 400 µM solutions followed by dilution in phosphate buffer to 40 µM, and were vortex mixed well by vortexing at each step of dilution.
A reaction premix (in triplicate for each control and test compound) were prepared by mixing 15 µl of the 40 µM solution with 530 µl of 0.4 mg/ml microsome mixture in a premix plate, and mixed carefully using a plate shaker. […]
The intrinsic clearance (ml/min/kg) was calculated using the equation (Obach et al., 1997): […]

In the case of `Oc1cc(CCCc2ccc(F)cc2)ccc1CN1CCCCC1` [NP046, 5-(3-(4-fluorophenyl)propyl)-2-(piperidin-1-ylmethyl)phenol], in data set [1], the concentration in solution (solubility at 2 h) was 185 µM (≈ 60.7 µg/mL). Besides, in data set [2], the microsomal CLint at 0.99 µM turned out to be 657 µL/min/mg.
